Earlier results in US20250346572A1, “NON-ACID INHIBITORS OF INOSITOL HEXAKISPHOSPHATE KINASE (IP6K) AND METHODS OF USE THEREOF” (Lieber Institute, Inc., priority 2022, published 2025).

Test system: Mice treated with HFD
Conditions: HFD for 8 weeks, then daily intraperitoneal 20 mg/kg TNP and HFD for 18 days

SMILES: O=[N+]([O-])c1ccc(CNc2nc(NCc3cccc(C(F)(F)F)c3)nc3nc[nH]c23)cc1 [TNP, N2-(m-trifluorobenzyl)-N6-(p-nitrobenzyl)purine]
- glucose tolerance and insulin sensitivity: improved glucose tolerance and insulin sensitivity
- serum insulin levels: lower serum insulin levels
